Entries after “also recorded” stand apart in the source; their conditions may differ. Like-named read-outs stand apart in the source and are kept apart here.
How the values were obtained:
Assay type in all cases: cell-based
[1] = system: panel of solid tumor and hematopoietic cancer cell lines; experiment: MTT proliferation assay, panel of solid tumor and hematopoietic cancer cell lines
Experimental: (§1) In one study, in vitro cytotoxicity of a PPARγ agonist with a favorable toxicity profile (pioglitazone [Actos®]) was tested against two PPARγ antagonists (T0070907 and GW9662) in a panel of solid tumor and hematopoietic cancer cell lines, using an MTT proliferation assay.
(§2) In one exemplary method, stock solutions of the above referenced agents were dissolved in 50:50 DMSO:DMF and then diluted into cell growth medium. Concentrations of 2-40 micromolar over 5-7 days provided significant growth inhibition for a range of hematopoietic (NHL & MM) and epithelial lines (renal cell, colon, breast). […] Also, both antagonists were dissolved in a cyclodextrin-propylene glycol vehicle and administered to mice at doses of 7.5-15 mg/kg intraperitoneally daily for 3 weeks with mild-moderate toxicity.

[2] = system: Hematopoietic (NHL and MM) cell lines; experiment: MTT proliferation assay, hematopoietic (NHL and MM) cell lines; conditions: unit printed only in the preceding sentence
Experimental: as §1, §2

solid tumor lines = experiment: MTT proliferation assay, solid tumor lines
Experimental: as §1, §2

Row | SMILES | effect of combination with the agonist pioglitazone on growth inhibition of cancer cell lines [1] | relative potency ([1]; comparison of IC50 values) | IC50 ([2]; MTT proliferation assay, range across NHL and MM lines, read-out: IC50 in hematopoietic (NHL and MM) cell lines (range over lines)) [µM] | IC50 ([2]; mean±SD across NHL and MM lines, read-out: IC50 in hematopoietic (NHL and MM) cell lines, mean±SD) [µM] | IC50 (solid tumor lines; MTT proliferation assay, range across solid tumor lines, read-out: IC50 in solid tumor lines (range over lines)) [µM] | IC50 (solid tumor lines; mean±SD across solid tumor lines, read-out: IC50 in solid tumor lines, mean±SD) [µM]
1 | O=C(Nc1ccncc1)c1cc([N+](=O)[O-])ccc1Cl [T0070907] | additive increases in growth inhibition; also recorded: additive effects | more potent than GW9662 |  |  |  | 
2 | O=C(Nc1ccccc1)c1cc([N+](=O)[O-])ccc1Cl [GW9662] | additive increases in growth inhibition; also recorded: additive effects |  |  |  |  | 
3 | CCc1ccc(CCOc2ccc(CC3SC(=O)NC3=O)cc2)nc1 (stereo not shown) [pioglitazone] |  |  | 82 to 125 | 101 ± 17.7 | ≥ 11.1 | 60.1 ± 28.1

From US20060217425A1, “Methods of treating cancer using PPAR-gamma antagonists” (priority 2005, published 2006)
